Laboratory results: patent US9889104B2, “Agent for treating diabetes” (NISHIZAKI BIOINFORMATION RESEARCH INSTITUTE, priority 2014, dated 2018)

Key:
[1] = tested on: 3T3L1-GLUT4myc adipocytes; experiment: Glucose uptake assay in 3T3L1-GLUT4myc adipocytes; format: cell-based; details: 2 hr
Experimental: (§1) 3T3L1-GLUT4myc fibroblast strain expressing GLUT4myc was used. The cells are constructed by inserting human c-MYC epitope (14 amino acids) into the first ectodomain. It is possible to track transport of GLUT4 onto cell membrane surface by using an antic-myc antibody.
The cells were cultured in Dulbecco's Modified Eagles Medium (DMEM) added with 10% (v/v) bovine serum, penicillin (final concentration, 100 U/ml) and streptomycin (final concentration, 0.1 mg/ml) in a humid environment under 5% CO2 and 95% air at 37° C. […]
3T3L1-GLUT4myc adipocytes were incubated in Krebs-Ringer-HEPES buffer [136 mM NaCl, 4.7 mM KCl, 1.25 mM CaCl2, 1.25 mM MgSO4 and 20 mM HEPES, pH 7.5] containing 0.2% (w/v) bovine serum albumin (BSA) and added with 10 mM glucose at 37° C. for […]. […] ABEE-labeled glucose was detected using a fluorescence detector at an excitation wavelength 305 nm and a fluorescence wavelength 360 nm. The amount of glucose uptaken into the cells after incubation for 2 hr is calculated by subtracting the extracellular glucose concentration from the initial extracellular glucose concentration (10 mM).
3T3L1-GLUT4myc adipocytes were incubated in glucose-containing (10 mM) PBS in the presence or absence of a given concentration of DCP-LA for 2 hr, and extracellular glucose concentration was measured by HPLC. […]

[2] = tested on: type 2 diabetes model mouse (C57BL/KsJ-lepr^db/lepr^db mouse); experiment: Oral glucose tolerance test in type 2 diabetes model mouse; format: in vivo; details: DCP-LA 0.001, 0.01, 0.1 mg/kg orally 30 min before glucose 2 g/kg, 0-90 min, FIG. 3B
Experimental: As type 2 diabetes model mouse, C57BL/KsJ-lepr^db/lepr^db mouse (female, 8-week-old) (CLEA Japan; Tokyo, Japan) was used.
(§2) OGTT was performed using the mouse starved for 12 hr. Glucose (2 g/ml/kg body weight) was administered by gavage, and the time point thereof was taken as 0 h. DCP-LA (0, 0.001, 0.01, 0.1 mg/kg) was orally administered 30 min before administration of glucose. The blood (10 μl) was collected from the tail vein at the time points of 0, 30, 60, and 90 min, and each plasma sample which was labeled with ABEE and prepared from the obtained blood was loaded on high performance liquid chromatography (HPLC) system (LC-10ATvp; Shimadzu Co., Kyoto, Japan). The glucose concentration was calculated from a peak area/concentration analytical curve prepared using the standard glucose solution.

[3] = tested on: type 1 diabetes model mouse (STZ-treated C57BL/6J mouse); experiment: Oral glucose tolerance test in type 1 diabetes model mouse; format: in vivo; details: DCP-LA 0.001, 0.01, 0.1 mg/kg orally 30 min before glucose 2 g/kg, 0-90 min, FIG. 3A
Experimental: Type 1 diabetes model mouse was prepared by intraperitoneal administration of streptozotocin (STZ; 250 mg/kg) to C57BL/6J mouse (8-week-old) (Japan SLC Inc.; Shizuoka, Japan). After 4 days from the STZ administration, an oral glucose tolerance test (OGTT) was performed.
as §2

GLUT4 = GLUT4 mobilization monitoring (Western blotting with anti-c-myc antibody); format: cell-based; details: 100 nM DCP-LA, 20 min; c-myc signal in cellular membrane fraction/total cell; FIG. 2
Experimental: as §1
The cells were cultured in Dulbecco's Modified Eagles Medium (DMEM) added with 10% (v/v) bovine serum, penicillin (final concentration, 100 U/ml) and streptomycin (final concentration, 0.1 mg/ml) in a humid environment under 5% CO2 and 95% air at 37° C. When the cells reached confluence (day 0), the medium was exchanged with DMEM added with 10% (v/v) fetal bovine serum (FBS), 1 μM dexamethasone, 0.5 mM 3-isobutyl-methyl-xanthine and 0.1 mg/ml insulin to allow for differentiation from fibroblast into adipocyte. The medium was exchanged with DMEM added with 10% (v/v) FBS on day 3, day 7 and day 11. On day 14, the cell differentiated into adipocyte were used for the experiment. […]
The protein concentration of each fraction was measured using BCA protein assay kit (Thermo Fisher Scientific, Waltham, Mass., USA). […] The immunoreactivity was detected using ECL kit (Invitrogen), and visualized using a chemical luminescence detection system (chemiluminescence detection system; GE Healthcare, Piscataway, N.J., USA). The signal density was measured using an image analysis software (Image Gauge software; GE Healthcare). […]

In the case of `CCCCCC1CC1CC1CC1CCCCCCCC(=O)O` (centres unmarked) [DCP-LA, 8-[2-(2-pentyl-cyclopropylmethyl)-cyclopropyl]-octanoic acid], the “sugar uptake promoting action in the presence of PKCε inhibitor GF109203X” value ([1]; 0.1 μM DCP-LA with 0.1 μM GF109203X, FIG. 1B) is reported as “not inhibited”, the “glucose uptake into the cells” value ([1]; 3T3L1-GLUT4myc adipocytes, 10 mM glucose PBS, given concentrations of DCP-LA, HPLC, FIG. 1A) is reported as “promote sugar uptake into the adipocytes in a bell-shaped concentration-dependent manner” and the blood glucose level [2] is reported as “dose-dependently lower the blood glucose level”. The blood glucose level [3] was “dose-dependently lower the blood glucose level” and the “transport of GLUT4 onto the cellular membrane” value (GLUT4) was “not promoted significantly”.
